Like-named read-outs stand apart in the source and are kept apart here. Where no end group is shown, it is not given here.
Assays:
Format in all cases: cell-based
Aureobasidium pullulans = conditions: 24 h
Description: (§1) The synthetic peptides were also screened for antifungal activity against Candida albicans (ATCC 10231), Aureobasidium pullulans and Rhodotorula sp. (the last two were obtained from Professor Arne Tronsmo, The Norwegian University of Life Sciences, As, Norway). The antifungal assay was performed as previously described (Sperstad, S. V., et al. (2009) Dev. Comp. Immunol. 33, 583-591). Briefly, fungal spores were dissolved in potato dextrose broth (Difco, Lawrence, Kans., USA) to a concentration of 4×10^5 spores/ml. The spores (50 μl) were inoculated on 96-well Nunclon™ microtiter plates containing the synthetic peptides (50 μl) dissolved in MQ-H2O. […] The negative (growth) control consisted of medium and fungal solution. The peptides were tested for activity in concentrations ranging from 100 to 0.1 μM in two-fold serial dilutions. All tests were performed in triplicates.

Rhodotorula sp. = conditions: 24 h
Description: as §1

[1] = system: Candida albicans (ATCC 10231)
Description: as §1

[2] = system: Corynebacterium glutamicum (Cg, ATCC 13032)
Description: (§2) The peptides were screened for antibacterial activity against two strains of Gram-positive and two strains of Gram-negative bacteria; Corynebacterium glutamicum (Cg, ATCC 13032), Staphylococcus aureus (Sa, ATCC 9144), Pseudomonas aeruginosa (Pa, ATCC 27853) and Escherichia coli (Ec, ATCC 25922).
(§3) Cultures stored at −80° C. in glycerol were transferred to Müller-Hinton plates (MH, Difco, Lawrence, Kans., USA) and incubated for 24 h at 35° C. A few colonies of each bacterial strain were transferred to 5 ml liquid MH medium and left shaking at room temperature overnight at 600 rpm. Cultures of actively growing bacteria (20 μl) were inoculated in 5 ml MH medium and left shaking for 2 h at room temperature. The antibacterial assays were performed as previously described by Sperstad, S. V., et al. ((2009) Mol. Immunol. 46, 2604-2612) with the following exception: bacterial cultures were diluted with medium to 2.5-3×10^4 bacteria/ml concentrations. An aliquot of 50 μl (1250-1500 bacterial cells) was added to each well in 96-well Nunclon™ microtiter plates (Nagle Nunc Int., Denmark) preloaded with peptide solution (50 μl).
(§4) The microtiter plates were incubated for 24 h at 35° C. with optical density recorded every hour using an Envision 2103 multilabel reader, controlled by a Wallac Envision manager (PerkinElmer, Conn., USA). Minimum inhibitory concentration (MIC) was defined as a sample showing complete inhibition (as measured by optical density at 595 nm) compared to the negative (growth) controls, consisting of bacteria and water. Oxytetracycline (20 μM) served as a positive (inhibition) control.
(§5) The synthetic peptides were tested for antibacterial activity in concentrations ranging from 200 to 0.1 μM in two-fold dilutions. All tests were performed in triplicates.

[3] = system: Pseudomonas aeruginosa (Pa, ATCC 27853)
Description: as §2, §3, §4, §5

[4] = system: Escherichia coli (Ec, ATCC 25922)
Description: as §2, §3, §4, §5

human red blood cells = assay: Haemolytic assay; conditions: human red blood cells, one hour at 37° C.; for Haemolysis (%) 25 μM: peptide 25 μM; for Haemolysis (%) 200 μM: peptide 200 μM
Description: Selected synthesised peptide analogues were also screened for haemolytic activity using human red blood cells as described previously (Sperstad, S. V., et al. (2009) Dev. Comp. Immunol. 33, 583-591). The assay was performed on 96-well U-shaped microtiter plates (Nagle Nunc) with 50 μl peptide sample, 40 μl phosphate-buffered saline (PBS) and 10 μl red blood cells. After one hour of incubation at 37° C. in a shaker, the plate was centrifuged at 200 g for 5 min and the supernatants (60 μl) were carefully transferred to a new flat-bottomed polycarbonate microtiter plate (Nagle Nunc) and the release of haemoglobin (absorbance at 550 nm) was measured on a Synergy H1 multimode reader (BioTek, Vt., USA). Cell suspension added 0.05% Triton X-100 (Sigma-Aldrich, Mo., USA) in PBS served as positive (100% haemolysis) control and cell suspension added PBS served as negative (0% haemolysis, blank) control. The percent haemolysis was calculated using the formula [(Asample-Abaseline)/(Atriton-Abaseline)]×100. The cytotoxic peptide melittin (Sigma-Aldrich) was used as a positive control peptide and for comparison. The experiment was performed in triplicates with peptide concentrations ranging from 200 μM to 1.56 μM in two-fold dilutions.

[5] = system: Staphylococcus aureus (Sa, ATCC 9144)
Description: as §2, §3, §4, §5

[6] = 24 h at 35° C., complete inhibition by OD 595 nm

| Substance | MIC (μM) A. pullulans (Aureobasidium pullulans) [µM] | MIC (μM) Rhodotorula sp. (Rhodotorula sp.) [µM] | MIC (μM) C. albicans ([1]; ATCC 10231, 24 h) [µM] | MIC (μM) Cg ([2]; ATCC 13032, 24 h) [µM] | MIC (μM) Pa ([3]; ATCC 27853, 24 h) [µM] | MIC (μM) Ec ([4]; ATCC 25922, 24 h) [µM] | Haemolysis (%) 25 μM (human red blood cells) [%] | Haemolysis (%) 200 μM (human red blood cells) [%] | MIC (μM) Sa ([5]; ATCC 9144, 24 h) [µM] | MIC (μM) C. albicans ([1]; no visible growth after 24 h at room temperature) [µM] | MIC (μM) Cg [2, 6] [µM] | MIC (μM) Pa [3, 6] [µM] | MIC (μM) Sa [5, 6] [µM] | MIC (μM) Ec [4, 6] [µM] |
| --- | --- | --- | --- | --- | --- | --- | --- | --- | --- | --- | --- | --- | --- | --- |
| AWWRRTVAKVRK-NH2 [Peptide G1A, AWWRRTVAKVRK-NH2] | 50 | 12.5 | 25 | 0.8 | 6.3 | 12.5 | 0.0 | 1.6 |  |  |  |  |  |  |
| GAWRRTVAKVRK-NH2 [Peptide W2A, GAWRRTVAKVRK-NH2] | 50 | 25 | 50 | 3.1 |  |  | 0.0 | 0.0 | 100 |  |  |  |  |  |
| GWARRTVAKVRK-NH2 [Peptide W3A, GWARRTVAKVRK-NH2] | 50 | 25 | 50 | 0.8 |  |  | 0.0 | 0.0 |  |  |  |  |  |  |
| GWARRWVAKVRK-NH2 [HC(1-12)A3W6A8K12, GWARRWVAKVRK-NH2] | 25 | 6.3 | 6.3 | 0.8 | 12.5 | 6.3 |  |  | 50 |  |  |  |  |  |
| GWWARTVAKVRK-NH2 [Peptide R4A, GWWARTVAKVRK-NH2] | 50 | 50 | 25 | 1.6 | 12.5 | 6.3 | 0.0 | 3.6 | 50 |  |  |  |  |  |
| GWWRRAVAKVRK-NH2 [Peptide T6A, GWWRRAVAKVRK-NH2] | 25 | 12.5 | 25 | 1.6 |  |  | 0.9 | 4.1 |  |  |  |  |  |  |
| GWWRRKVAKVRK-NH2 [HC(1-12)K6A8K12, GWWRRKVAKVRK-NH2] | 25 | 25 | 50 | 1.6 | 50 | 12.5 |  |  | 12.5 |  |  |  |  |  |
| GWWRRTVAAVRK-NH2 [Peptide K9A, GWWRRTVAAVRK-NH2] | 25 | 12.5 | 25 | 1.6 |  |  | 0.0 | 5.1 | 100 |  |  |  |  |  |
| GWWRRTVAKVRA-NH2 [Peptide K12A, GWWRRTVAKVRA-NH2] | 50 | 12.5 | 25 | 0.8 |  |  | 0.0 | 0.0 | 50 |  |  |  |  |  |
| GWWRRTVAKVRNAGRK-NH2 [HC(1-16)A8, GWWRRTVAKVRNAGRK] |  |  |  | 0.8 | 3.1 | 3.1 | 0.0 | 5.0 | 12.5 |  |  |  |  |  |
| GWWRRWVAKVRK-NH2 [HC(1-12)W6A8K12, GWWRRWVAKVRK-NH2] | 50 |  |  |  |  |  |  |  |  | 12.5 | 0.8 | 1.6 | 3.1 | 1.6 |
| GWWRRWVKKVRK-NH2 [HC(1-12)W6K8K12, GWWRRWVKKVRK-NH2] | 12.5 | 6.3 | 25 | 1.6 | 3.1 | 6.3 |  |  | 3.1 |  |  |  |  |  |
| H-GWWRRTVAKVRN-NH2 [HC(1-12)A8, GWWRRTVAKVRN] |  |  |  | 1.6 | 6.3 | 6.3 |  |  | 50 |  |  |  |  |  |
| H-GWWRRTVRK-NH2 [HC(1-9)R8, GWWRRTVRK] |  |  |  | 3.1 | 25 | 50 |  |  | 100 |  |  |  |  |  |
| KWWRRWVKKVRK-NH2 [HC(1-12)K1W6K8K12, KWWRRWVKKVRK-NH2] | 25 | 3.1 | 6.3 | 0.4 | 1.6 | 3.1 |  |  | 6.3 |  |  |  |  |  |
| RWWRRWVRRVRR-NH2 [HC(1-12)R1W6R8,9,12-NH2, RWWRRWVRRVRR-NH2] | 25 | 3.1 | 12.5 | 0.8 | 3.1 | 3.1 |  |  | 3.1 |  |  |  |  |  |
| WWRRTVAKVRNAGRK-NH2 [HC(2-16)A7, WWRRTVAKVRNAGRK] |  |  |  | 0.4 | 25 | 6.3 |  |  | 12.5 |  |  |  |  |  |
